According to ChEMBL document CHEMBL4507259 (2021):

Tests used:
[1] = target: Serine/threonine-protein kinase D3 (Homo sapiens) (UniProt O94806); conditions: Compound concentration 1000.0 nM
[2] = target: D(4) dopamine receptor (Homo sapiens) (UniProt P21917); conditions: Compound concentration 10.0 uM
[3] = tested on: Epidermal growth factor receptor (Homo sapiens), P00533 [G719S]; conditions: Compound concentration 1000.0 nM
[4] = target: Cannabinoid receptor 1 (Homo sapiens) (UniProt P21554); experiment: CB1 (h) CEREP ligand profiling; conditions: filed as agonist, Compound concentration 10.0 uM
[5] = target: T1, Alpha-1A adrenergic receptor (Homo sapiens) (UniProt P35348); experiment: alpha 1A (h) CEREP ligand profiling; conditions: filed as antagonist, Compound concentration 10.0 uM
T1 sequence (whole entry): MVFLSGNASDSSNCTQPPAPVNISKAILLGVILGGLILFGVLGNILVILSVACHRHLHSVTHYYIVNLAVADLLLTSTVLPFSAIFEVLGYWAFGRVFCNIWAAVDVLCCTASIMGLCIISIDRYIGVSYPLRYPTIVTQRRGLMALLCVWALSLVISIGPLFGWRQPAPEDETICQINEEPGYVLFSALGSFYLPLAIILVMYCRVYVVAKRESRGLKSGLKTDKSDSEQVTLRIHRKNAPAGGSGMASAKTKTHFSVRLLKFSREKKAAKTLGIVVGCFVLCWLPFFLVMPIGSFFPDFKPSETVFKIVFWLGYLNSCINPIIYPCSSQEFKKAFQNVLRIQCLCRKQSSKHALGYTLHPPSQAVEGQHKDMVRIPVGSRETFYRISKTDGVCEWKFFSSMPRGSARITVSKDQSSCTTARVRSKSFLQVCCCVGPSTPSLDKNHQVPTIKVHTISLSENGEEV

[6] = tested on: Phosphatidylinositol 4,5-bisphosphate 3-kinase catalytic subunit alpha isoform (Homo sapiens), P42336 [I800L]; conditions: Compound concentration 1000.0 nM
Sequence of Phosphatidylinositol 4,5-bisphosphate 3-kinase catalytic subunit alpha isoform (Homo sapiens), P42336 [I800L] (P42336 whole entry I800L, canonical isoform): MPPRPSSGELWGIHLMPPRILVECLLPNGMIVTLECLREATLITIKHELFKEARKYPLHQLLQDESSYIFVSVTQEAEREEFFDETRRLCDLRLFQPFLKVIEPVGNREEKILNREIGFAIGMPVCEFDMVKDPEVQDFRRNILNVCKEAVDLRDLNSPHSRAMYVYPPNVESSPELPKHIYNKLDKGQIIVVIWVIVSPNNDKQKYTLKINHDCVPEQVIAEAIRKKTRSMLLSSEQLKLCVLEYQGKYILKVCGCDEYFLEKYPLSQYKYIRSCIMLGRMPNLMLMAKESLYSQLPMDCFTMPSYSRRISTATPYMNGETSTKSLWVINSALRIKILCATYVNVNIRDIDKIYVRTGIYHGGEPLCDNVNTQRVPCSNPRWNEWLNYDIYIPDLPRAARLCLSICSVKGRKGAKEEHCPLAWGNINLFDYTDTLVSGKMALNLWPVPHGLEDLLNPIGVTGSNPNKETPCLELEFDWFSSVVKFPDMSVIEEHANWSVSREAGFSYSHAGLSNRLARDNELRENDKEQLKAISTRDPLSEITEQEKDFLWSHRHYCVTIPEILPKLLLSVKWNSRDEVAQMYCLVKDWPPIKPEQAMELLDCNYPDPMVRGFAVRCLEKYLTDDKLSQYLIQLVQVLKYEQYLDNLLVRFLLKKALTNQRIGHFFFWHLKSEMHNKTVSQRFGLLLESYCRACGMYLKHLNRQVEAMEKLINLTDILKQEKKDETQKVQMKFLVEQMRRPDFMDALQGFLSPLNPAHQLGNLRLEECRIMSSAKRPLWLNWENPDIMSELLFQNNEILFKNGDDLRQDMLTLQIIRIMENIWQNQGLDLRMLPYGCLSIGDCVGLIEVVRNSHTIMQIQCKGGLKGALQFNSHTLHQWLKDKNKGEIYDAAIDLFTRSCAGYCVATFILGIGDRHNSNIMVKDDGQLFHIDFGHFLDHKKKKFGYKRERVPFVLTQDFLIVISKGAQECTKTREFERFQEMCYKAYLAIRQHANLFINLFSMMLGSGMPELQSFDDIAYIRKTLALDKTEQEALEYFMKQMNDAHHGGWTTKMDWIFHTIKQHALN

[7] = target: G protein-coupled receptor kinase 4 (Homo sapiens) (UniProt P32298); conditions: Compound concentration 1000.0 nM
Sequence of G protein-coupled receptor kinase 4 (Homo sapiens) (P32298 whole entry, looked up): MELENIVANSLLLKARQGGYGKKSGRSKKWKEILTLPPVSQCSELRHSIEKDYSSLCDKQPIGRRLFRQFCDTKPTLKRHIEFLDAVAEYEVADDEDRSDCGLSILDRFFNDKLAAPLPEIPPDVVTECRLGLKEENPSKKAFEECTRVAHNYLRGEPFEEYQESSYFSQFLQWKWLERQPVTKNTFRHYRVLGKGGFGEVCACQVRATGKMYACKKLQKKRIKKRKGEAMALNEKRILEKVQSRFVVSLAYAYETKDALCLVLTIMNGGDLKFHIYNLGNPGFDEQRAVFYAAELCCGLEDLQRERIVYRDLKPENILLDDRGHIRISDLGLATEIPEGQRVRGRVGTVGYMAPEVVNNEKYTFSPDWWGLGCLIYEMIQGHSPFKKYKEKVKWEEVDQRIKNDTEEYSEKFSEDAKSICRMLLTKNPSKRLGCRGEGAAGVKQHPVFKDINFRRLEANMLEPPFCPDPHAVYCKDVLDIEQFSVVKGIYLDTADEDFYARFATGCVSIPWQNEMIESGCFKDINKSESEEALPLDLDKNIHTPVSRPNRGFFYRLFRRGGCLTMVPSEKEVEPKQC

[8] = target: Beta-1 adrenergic receptor (Homo sapiens) (UniProt P08588); conditions: Compound concentration 10.0 uM
[9] = target: Serine/threonine-protein kinase D1 (Homo sapiens) (UniProt Q15139); conditions: Compound concentration 1000.0 nM
[10] = target: Type-2 angiotensin II receptor (Homo sapiens) (UniProt P50052); experiment: AT2 (h) CEREP ligand profiling; conditions: filed as agonist, Compound concentration 10.0 uM
[11] = tested on: Tyrosine-protein kinase ABL1 (Homo sapiens), P00519 [H396P]; conditions: Compound concentration 1000.0 nM
[12] = target: Ribosomal protein S6 kinase alpha-1 (Homo sapiens) (UniProt Q15418); conditions: Compound concentration 1000.0 nM
[13] = target: Mitogen-activated protein kinase kinase kinase 6 (Homo sapiens) (UniProt O95382); conditions: Compound concentration 1000.0 nM
[14] = target: Ephrin type-A receptor 5 (Homo sapiens) (UniProt P54756); conditions: Compound concentration 1000.0 nM
Sequence of Ephrin type-A receptor 5 (Homo sapiens) (P54756 whole entry): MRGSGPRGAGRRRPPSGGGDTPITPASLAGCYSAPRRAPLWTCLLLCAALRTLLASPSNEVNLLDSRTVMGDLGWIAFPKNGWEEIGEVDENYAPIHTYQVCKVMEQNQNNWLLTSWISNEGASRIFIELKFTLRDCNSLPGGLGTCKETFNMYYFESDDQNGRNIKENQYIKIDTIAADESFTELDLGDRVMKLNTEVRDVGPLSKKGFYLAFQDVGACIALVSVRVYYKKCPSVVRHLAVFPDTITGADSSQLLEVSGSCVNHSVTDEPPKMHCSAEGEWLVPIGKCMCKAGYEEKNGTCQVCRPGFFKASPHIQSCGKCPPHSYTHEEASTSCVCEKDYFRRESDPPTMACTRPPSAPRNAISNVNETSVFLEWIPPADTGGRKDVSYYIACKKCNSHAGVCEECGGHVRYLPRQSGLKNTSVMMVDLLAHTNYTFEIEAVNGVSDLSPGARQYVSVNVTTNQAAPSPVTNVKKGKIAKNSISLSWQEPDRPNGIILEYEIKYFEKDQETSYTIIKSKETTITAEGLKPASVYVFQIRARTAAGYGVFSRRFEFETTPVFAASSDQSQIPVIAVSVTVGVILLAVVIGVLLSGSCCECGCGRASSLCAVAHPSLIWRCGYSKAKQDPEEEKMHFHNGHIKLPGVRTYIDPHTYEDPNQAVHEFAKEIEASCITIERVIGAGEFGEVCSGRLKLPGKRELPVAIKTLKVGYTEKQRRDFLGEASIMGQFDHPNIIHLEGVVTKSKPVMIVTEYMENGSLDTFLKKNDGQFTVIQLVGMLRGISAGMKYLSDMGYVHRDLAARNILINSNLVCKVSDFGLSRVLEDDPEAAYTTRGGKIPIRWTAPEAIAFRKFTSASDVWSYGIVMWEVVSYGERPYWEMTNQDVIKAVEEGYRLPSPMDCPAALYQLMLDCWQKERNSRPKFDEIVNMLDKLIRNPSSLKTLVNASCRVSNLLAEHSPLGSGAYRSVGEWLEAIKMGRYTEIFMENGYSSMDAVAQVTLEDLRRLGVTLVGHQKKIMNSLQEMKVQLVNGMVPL

[15] = target: Bone morphogenetic protein receptor type-1A (Homo sapiens) (UniProt P36894); conditions: Compound concentration 1000.0 nM
[16] = target: Phosphatidylinositol 3-kinase catalytic subunit type 3 (Homo sapiens) (UniProt Q8NEB9); conditions: Compound concentration 1000.0 nM
[17] = target: Sigma intracellular receptor 2 (Homo sapiens, UniProt Q5BJF2); experiment: GPCRScan assay: inhibition of Sigma 2; design: radioligand conc. used [nm] 5.0, parental cells HEKT
Sequence of Sigma intracellular receptor 2 (Q5BJF2 whole entry): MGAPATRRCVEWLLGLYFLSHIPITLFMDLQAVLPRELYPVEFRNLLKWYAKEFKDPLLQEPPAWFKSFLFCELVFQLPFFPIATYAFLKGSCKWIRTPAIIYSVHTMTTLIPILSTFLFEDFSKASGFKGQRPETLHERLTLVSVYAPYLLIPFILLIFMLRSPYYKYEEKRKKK

[18] = target: Mitogen-activated protein kinase kinase kinase 5 (Homo sapiens) (UniProt Q99683); conditions: Compound concentration 1000.0 nM
[19] = target: Urotensin-2 receptor (Homo sapiens) (UniProt Q9UKP6); experiment: UT (h) CEREP ligand profiling; conditions: filed as agonist, Compound concentration 10.0 uM
Sequence of Urotensin-2 receptor (Homo sapiens) (Q9UKP6 whole entry): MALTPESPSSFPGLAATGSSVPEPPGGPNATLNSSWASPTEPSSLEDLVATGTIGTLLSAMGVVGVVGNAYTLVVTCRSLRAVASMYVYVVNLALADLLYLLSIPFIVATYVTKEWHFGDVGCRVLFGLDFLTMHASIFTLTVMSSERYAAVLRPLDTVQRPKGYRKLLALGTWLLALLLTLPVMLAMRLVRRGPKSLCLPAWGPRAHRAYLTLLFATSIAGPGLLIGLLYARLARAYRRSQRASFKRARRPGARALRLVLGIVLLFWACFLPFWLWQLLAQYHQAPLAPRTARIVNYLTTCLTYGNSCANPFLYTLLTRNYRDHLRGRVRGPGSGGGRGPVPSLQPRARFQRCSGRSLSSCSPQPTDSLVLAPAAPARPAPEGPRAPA

[20] = target: Tyrosine-protein kinase Fer (Homo sapiens) (UniProt P16591); conditions: Compound concentration 1000.0 nM
[21] = target: Tyrosine-protein kinase BTK (Homo sapiens) (UniProt Q06187); conditions: Compound concentration 1000.0 nM
[22] = target: Myosin-IIIb (Homo sapiens) (UniProt Q8WXR4); conditions: Compound concentration 1000.0 nM
[23] = target: Rho-associated protein kinase 2 (Homo sapiens) (UniProt O75116); conditions: Compound concentration 1000.0 nM
Sequence of Rho-associated protein kinase 2 (Homo sapiens) (O75116 whole entry, looked up): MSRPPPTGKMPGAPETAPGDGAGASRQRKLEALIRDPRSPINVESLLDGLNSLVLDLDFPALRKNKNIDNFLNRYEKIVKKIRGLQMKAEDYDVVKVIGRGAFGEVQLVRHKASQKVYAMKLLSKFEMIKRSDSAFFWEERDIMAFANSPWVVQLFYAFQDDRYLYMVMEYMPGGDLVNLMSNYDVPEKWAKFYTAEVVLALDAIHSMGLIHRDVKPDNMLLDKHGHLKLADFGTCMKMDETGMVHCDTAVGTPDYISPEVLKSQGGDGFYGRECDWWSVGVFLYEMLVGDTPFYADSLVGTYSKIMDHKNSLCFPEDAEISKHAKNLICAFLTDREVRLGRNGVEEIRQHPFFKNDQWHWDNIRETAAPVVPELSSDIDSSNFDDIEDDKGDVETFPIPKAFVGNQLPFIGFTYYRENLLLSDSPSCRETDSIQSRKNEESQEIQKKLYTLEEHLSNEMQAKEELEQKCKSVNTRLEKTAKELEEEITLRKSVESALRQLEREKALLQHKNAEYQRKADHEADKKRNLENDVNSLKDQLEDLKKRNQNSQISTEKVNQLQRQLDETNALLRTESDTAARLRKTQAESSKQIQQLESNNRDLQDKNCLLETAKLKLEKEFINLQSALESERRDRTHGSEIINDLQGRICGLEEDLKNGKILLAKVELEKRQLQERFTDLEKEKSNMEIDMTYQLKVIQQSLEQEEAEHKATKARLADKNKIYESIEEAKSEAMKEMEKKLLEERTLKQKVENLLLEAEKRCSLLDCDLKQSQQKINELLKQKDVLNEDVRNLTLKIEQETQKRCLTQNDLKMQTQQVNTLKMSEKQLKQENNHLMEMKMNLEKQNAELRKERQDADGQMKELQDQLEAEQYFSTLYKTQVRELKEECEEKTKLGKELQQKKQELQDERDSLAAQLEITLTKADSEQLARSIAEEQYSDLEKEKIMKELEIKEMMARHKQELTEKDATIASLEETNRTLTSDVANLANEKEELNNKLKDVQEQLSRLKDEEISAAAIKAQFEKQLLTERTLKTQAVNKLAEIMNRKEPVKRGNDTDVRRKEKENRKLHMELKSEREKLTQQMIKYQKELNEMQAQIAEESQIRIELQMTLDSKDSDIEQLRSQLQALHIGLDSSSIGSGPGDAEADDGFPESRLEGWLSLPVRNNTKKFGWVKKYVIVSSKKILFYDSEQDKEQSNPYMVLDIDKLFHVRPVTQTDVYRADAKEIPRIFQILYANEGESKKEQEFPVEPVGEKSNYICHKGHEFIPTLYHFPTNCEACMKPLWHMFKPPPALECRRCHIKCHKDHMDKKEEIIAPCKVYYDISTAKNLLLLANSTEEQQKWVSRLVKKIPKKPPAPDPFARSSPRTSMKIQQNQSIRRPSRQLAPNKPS

[24] = target: Transient receptor potential cation channel subfamily M member 6 (Homo sapiens) (UniProt Q9BX84); conditions: Compound concentration 1000.0 nM
[25] = target: Cyclin-dependent kinase-like 5 (Homo sapiens) (UniProt O76039); conditions: Compound concentration 1000.0 nM
[26] = target: Calcium/calmodulin-dependent protein kinase type II subunit alpha (Homo sapiens) (UniProt Q9UQM7); conditions: Compound concentration 1000.0 nM
[27] = target: NT-3 growth factor receptor (Homo sapiens) (UniProt Q16288); conditions: Compound concentration 1000.0 nM
[28] = target: Cyclin-dependent kinase 5 (Homo sapiens) (UniProt Q00535); conditions: Compound concentration 1000.0 nM
Sequence of Cyclin-dependent kinase 5 (Homo sapiens) (Q00535 whole entry, looked up): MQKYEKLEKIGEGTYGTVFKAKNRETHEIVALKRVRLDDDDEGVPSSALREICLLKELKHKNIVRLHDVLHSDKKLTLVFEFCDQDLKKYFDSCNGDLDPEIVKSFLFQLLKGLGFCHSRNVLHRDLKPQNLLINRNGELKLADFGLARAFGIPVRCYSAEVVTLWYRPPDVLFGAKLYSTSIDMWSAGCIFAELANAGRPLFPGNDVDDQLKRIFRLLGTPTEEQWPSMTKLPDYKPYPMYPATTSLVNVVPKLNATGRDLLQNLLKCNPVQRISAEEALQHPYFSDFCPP

[29] = target: Mitogen-activated protein kinase kinase kinase 11 (Homo sapiens) (UniProt Q16584); conditions: Compound concentration 1000.0 nM
[30] = target: Serine/threonine-protein kinase tousled-like 2 (Homo sapiens) (UniProt Q86UE8); conditions: Compound concentration 1000.0 nM
[31] = target: Phosphatidylinositol 3-kinase C2 domain-containing subunit gamma (Homo sapiens) (UniProt O75747); conditions: Compound concentration 1000.0 nM
[32] = target: Discoidin domain-containing receptor 2 (Homo sapiens) (UniProt Q16832); conditions: Compound concentration 1000.0 nM
[33] = target: Beta-2 adrenergic receptor (Homo sapiens) (UniProt P07550); conditions: Compound concentration 10.0 uM
[34] = tested on: Phosphatidylinositol 4,5-bisphosphate 3-kinase catalytic subunit alpha isoform (Homo sapiens), P42336 [H1047Y]; conditions: Compound concentration 1000.0 nM
Sequence of Phosphatidylinositol 4,5-bisphosphate 3-kinase catalytic subunit alpha isoform (Homo sapiens), P42336 [H1047Y] (P42336 whole entry H1047Y, canonical isoform): as the sequence (P42336 whole entry I800L, canonical isoform) above, with L800I, H1047Y counted along it

[35] = target: Serine/threonine-protein kinase RIO2 (Homo sapiens) (UniProt Q9BVS4); conditions: Compound concentration 1000.0 nM

| SMILES | residual activity [1] [%] | inhibition [2] [%] | residual activity [3] [%] | inhibition [4] [%] | inhibition [5] [%] | residual activity [6] [%] | residual activity [7] [%] | inhibition [8] [%] | residual activity [9] [%] | inhibition [10] [%] | residual activity [11] [%] | residual activity [12] [%] | residual activity [13] [%] | residual activity [14] [%] | residual activity [15] [%] | residual activity [16] [%] | Ki ([17]; read-out: Ki) [µM] | residual activity [18] [%] | inhibition [19] [%] | residual activity [20] [%] | also measured |
| --- | --- | --- | --- | --- | --- | --- | --- | --- | --- | --- | --- | --- | --- | --- | --- | --- | --- | --- | --- | --- | --- |
| CNC(=O)Nc1ccc2c(c1)CC[C@@]21OC(=O)N(CC(=O)N(Cc2ccc(F)cc2)[C@@H](C)C(F)(F)F)C1=O [A-485] | 100 | 7.26 | 95 | 25 | 29 | 83 | 98 | -5.22 | 99 | 12 | 74 | 88 | 86 | 96 | 91 | 88 | 5.53 | 94 | 6 | 87 | Ki ([17]; read-out: pKi (converted)): 5.13 µM; residual activity [21]: 87%; residual activity [22]: 88%; residual activity [23]: 96%; residual activity [24]: 100%; residual activity [25]: 69%; residual activity [26]: 91%; residual activity [27]: 84%; residual activity [28]: 84%; residual activity [29]: 73%; residual activity [30]: 100%; residual activity [31]: 75%; residual activity [32]: 75%; inhibition [33]: 19%; residual activity [34]: 91%; residual activity [35]: 67% |
| CNC(=O)Nc1ccc2c(c1)[C@@]1(CC2)OC(=O)N(CC(=O)N(Cc2ccc(F)cc2)[C@@H](C)C(F)(F)F)C1=O [A-486] | 100 | 8.38 | 100 | 22 | 16 | 63 | 100 | -4.4 | 100 | 2 | 83 | 100 | 82 | 94 | 100 | 96 | 3.27 | 100 | 21 | 79 | residual activity [21]: 97%; residual activity [22]: 100%; residual activity [23]: 95%; residual activity [24]: 98%; residual activity [25]: 82%; residual activity [26]: 100%; residual activity [27]: 82%; residual activity [28]: 79%; residual activity [29]: 91%; residual activity [30]: 100%; residual activity [31]: 97%; residual activity [32]: 100%; inhibition [33]: 24.7%; residual activity [34]: 100%; residual activity [35]: 83% |
